Common to all, as to type: cell-based
The test system of one assay is HT29. Nature of the assay: Cell proliferative assay (MTT), HT29. The note with it: Homo sapiens, HT-29, 72 h incubation, read-out: IC50s HT29. As for the experimental part: (§1) The synthesized compounds were evaluated for their cytotoxin activity against suspended tumor cells. These cells were seeded on 96-well plates and incubated for 24 h. Selected compounds were added at various doses and incubated for 72 h, MTT was then added, and the absorbance was measured at a wavelength of 590 nm. IC50 values are expressed as the mean±SEM from the dose-response curves of at least three independent experiments.

The test system of a further assay is SW620. Nature of the assay: Cell proliferative assay (MTT), SW620. The note with it: Homo sapiens, SW-620, 72 h incubation, read-out: IC50s SW620. The procedure: as §1
A further assay has as its system K562. Nature of the assay: Cell proliferative assay (MTT), K562. The note with it: Homo sapiens, 72 h incubation, read-out: IC50s K562. The method, boiled down:
(§2)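 Seed cells, incubate 24 h, add compounds at various doses, incubate 72 h, add MTT, measure absorbance at 590 nm. IC50 from dose-response curves, mean±SEM of ≥3 experiments.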

The next assay deals with HCT116. In words: Cell proliferative assay (MTT), HCT116. The note with it: Homo sapiens, HCT-116, 72 h incubation, read-out: IC50s HCT116. As for the experimental part: as §1
The test system of another assay is HepG2. In words: Cell proliferative assay (MTT), HepG2. The following applies: Homo sapiens, 72 h incubation, read-out: IC50s HepG2. The method, boiled down:
as §2

The next assay has as its system tumor cells. In words: Cell proliferative assay (MTT), summary over tumor cells. The note with it: summary in words of Table 1; colon, liver, leukemia lines. As for the experimental part: as §1
In the next assay the test system is SMMC-7221. In words: Cell proliferative assay (MTT), SMMC-7221. The following applies: 72 h incubation, read-out: IC50s SMMC-7221. The procedure, abridged:
as §2

In the next assay the test system is A375. Nature of the assay: Cell proliferative assay (MTT), A375. The note with it: Homo sapiens, A-375, 72 h incubation, read-out: IC50s A375. The procedure, abridged: as §2
For the next assay, the system named is A549. Nature of the assay: Cell proliferative assay (MTT), A549. The note with it: Homo sapiens, 72 h incubation, read-out: IC50s A549. The procedure, abridged: as §2
In another assay the test system is LO2. Nature of the assay: Cell proliferative assay (MTT), LO2. The note with it: Homo sapiens, L02, 72 h incubation, read-out: IC50s LO2. The method, boiled down:
as §2

In the case of `COc1ccc(C(=O)/C=C/c2ccccc2)c2c1C=CC(C)(C)O2` [SKLBC-20, (E)-1-(5-methoxy-2,2-dimethyl-2H-chromen-8-yl)-3-phenylprop-2-en-1-one], the IC50 in the assay with HT29, with SW620, with K562, with HCT116 and in the assay with HepG2 was > 10 µM throughout.
For `COc1ccc(/C=C/C(=O)c2ccc(OC)c3c2OC(C)(C)C=C3)cn1` [SKLBC-21, (E)-1-(5-methoxy-2,2-dimethyl-2H-chromen-8-yl)-3-(6-methoxypyridin-3-yl)prop-2-en-1-one], the IC50 with HT29, in the assay with SW620, in the assay on K562, with HCT116 and in the assay with HepG2 was > 10 µM throughout.
Turning to `COc1ccc(C(=O)/C=C/c2ccc(O)cc2)c2c1C=CC(C)(C)O2` [SKLBC-22, (E)-3-(4-hydroxyphenyl)-1-(5-methoxy-2,2-dimethyl-2H-chromen-8-yl)prop-2-en-1-one], the IC50 with HT29, with SW620, with K562, in the assay with HCT116 and in the assay on HepG2 was > 10 µM in each case.
For the molecule `COc1ccc(C(=O)/C=C/c2cccc(O)c2)c2c1C=CC(C)(C)O2` [SKLBC-23, (E)-3-(3-hydroxyphenyl)-1-(5-methoxy-2,2-dimethyl-2H-chromen-8-yl)prop-2-en-1-one], the IC50 with HT29, with SW620, with K562, in the assay with HCT116 and with HepG2 was > 10 µM throughout.
As to `COc1ccc(C(=O)/C=C/c2ccc(OC)c(OC)c2OC)c2c1C=CC(C)(C)O2` [SKLBC-24, (E)-1-(5-methoxy-2,2-dimethyl-2H-chromen-8-yl)-3-(2,3,4-trimethoxyphenyl)prop-2-en-1-one], the IC50 in the assay on HT29, in the assay on SW620, in the assay on K562, in the assay on HCT116 and with HepG2 was > 10 µM in each case.
Turning to `COc1ccc(C(=O)/C=C/c2cccc(C(F)(F)F)c2)c2c1C=CC(C)(C)O2` [SKLBC-25, (E)-1-(5-methoxy-2,2-dimethyl-2H-chromen-8-yl)-3-(3-(trifluoromethyl)phenyl)prop-2-en-1-one], the IC50 is > 10 µM with HT29; > 10 µM in the assay on SW620; > 10 µM with K562; 9.71 µM with HCT116; > 10 µM with HepG2.
Consider `CCOc1cc(/C=C/C(=O)c2ccc(OC)c3c2OC(C)(C)C=C3)ccc1O` [SKLBC-26, (E)-3-(3-ethoxy-4-hydroxyphenyl)-1-(5-methoxy-2,2-dimethyl-2H-chromen-8-yl)prop-2-en-1-one], for which the IC50 with HT29, in the assay with SW620, in the assay on K562, in the assay with HCT116 and in the assay with HepG2 was > 10 µM in each case.
As for `COc1ccc(C(=O)/C=C/c2ccsc2)c2c1C=CC(C)(C)O2` [SKLBC-27, (E)-1-(5-methoxy-2,2-dimethyl-2H-chromen-8-yl)-3-(thiophen-3-yl)prop-2-en-1-one], the IC50 with HT29, with SW620, in the assay on K562, in the assay with HCT116 and in the assay on HepG2 was > 10 µM throughout.
As for `COc1ccc(C(=O)/C=C/c2ccc(O)c(Br)c2)c2c1C=CC(C)(C)O2` [SKLBC-29, (E)-3-(3-bromo-4-hydroxyphenyl)-1-(5-methoxy-2,2-dimethyl-2H-chromen-8-yl)prop-2-en-1-one], the IC50 with HT29, in the assay on SW620, with K562, in the assay on HCT116 and in the assay with HepG2 was > 10 µM each time.
Consider `COc1cc(/C=C/C(=O)c2ccc(OC)c3c2OC(C)(C)C=C3)cc(OC)c1O` [SKLBC-30, (E)-3-(4-hydroxy-3,5-dimethoxyphenyl)-1-(5-methoxy-2,2-dimethyl-2H-chromen-8-yl)prop-2-en-1-one], for which the IC50 in the assay on HT29, with SW620, in the assay with K562, with HCT116 and in the assay with HepG2 was > 10 µM throughout.
With `COc1ccc(C(=O)/C=C/c2ccco2)c2c1C=CC(C)(C)O2` [SKLBC-31, (E)-3-(furan-2-yl)-1-(5-methoxy-2,2-dimethyl-2H-chromen-8-yl)prop-2-en-1-one], the IC50 in the assay with HT29, with SW620, in the assay with K562, with HCT116 and with HepG2 was > 10 µM throughout.
`COc1ccc(C(=O)/C=C/c2cccc3ccccc23)c2c1C=CC(C)(C)O2` [SKLBC-32, (E)-1-(5-methoxy-2,2-dimethyl-2H-chromen-8-yl)-3-(naphthalen-1-yl)prop-2-en-1-one]: the IC50 in the assay on HT29, in the assay on SW620, in the assay on K562, with HCT116 and with HepG2 was > 10 µM in each case.
As to `COc1ccc(C(=O)/C=C/c2ccc(Cl)cc2)c2c1C=CC(C)(C)O2` [SKLBC-34, (E)-3-(4-chlorophenyl)-1-(5-methoxy-2,2-dimethyl-2H-chromen-8-yl)prop-2-en-1-one], the IC50 in the assay on HT29, in the assay on SW620, in the assay on K562, in the assay on HCT116 and with HepG2 was > 10 µM throughout.
For `COc1ccc(C(=O)/C=C/c2cccc(Cl)c2)c2c1C=CC(C)(C)O2` [SKLBC-35, (E)-3-(3-chlorophenyl)-1-(5-methoxy-2,2-dimethyl-2H-chromen-8-yl)prop-2-en-1-one], the IC50 with HT29, with SW620, with K562, in the assay with HCT116 and in the assay with HepG2 was > 10 µM in each case.
On to `COc1ccc(C(=O)/C=C/c2cccs2)c2c1C=CC(C)(C)O2` [SKLBC-36, (E)-1-(5-methoxy-2,2-dimethyl-2H-chromen-8-yl)-3-(thiophen-2-yl)prop-2-en-1-one], for which the IC50 with HT29, in the assay with SW620, with K562, in the assay on HCT116 and in the assay on HepG2 was > 10 µM each time.
As for `COc1ccc(C(=O)/C=C/c2ccc(Cl)c(Cl)c2)c2c1C=CC(C)(C)O2` [SKLBC-37, (E)-3-(3,4-dichlorophenyl)-1-(5-methoxy-2,2-dimethyl-2H-chromen-8-yl)prop-2-en-1-one], the IC50 with HT29 was > 10 µM; in the assay on SW620, > 10 µM; in the assay on K562, > 10 µM; in the assay on HCT116, 9.44 µM; in the assay on HepG2, > 10 µM.
With `COc1ccc(C(=O)/C=C/c2cc(Cl)ccc2O)c2c1C=CC(C)(C)O2` [SKLBC-38, (E)-3-(5-chloro-2-hydroxyphenyl)-1-(5-methoxy-2,2-dimethyl-2H-chromen-8-yl)prop-2-en-1-one], the IC50 in the assay with HT29 was > 10 µM; in the assay on SW620, > 10 µM; with K562, > 10 µM; with HCT116 it was 5.24 µM; in the assay on HepG2, > 10 µM.
Regarding `COc1ccc(C(=O)/C=C/c2ccccc2Cl)c2c1C=CC(C)(C)O2` [SKLBC-39, (E)-3-(2-chlorophenyl)-1-(5-methoxy-2,2-dimethyl-2H-chromen-8-yl)prop-2-en-1-one], the IC50 in the assay with HT29, in the assay with SW620, in the assay on K562, in the assay on HCT116 and in the assay with HepG2 was > 10 µM each time.
On to `COc1ccccc1/C=C/C(=O)c1ccc(OC)c2c1OC(C)(C)C=C2` [SKLBC-40, (E)-1-(5-methoxy-2,2-dimethyl-2H-chromen-8-yl)-3-(2-methoxyphenyl)prop-2-en-1-one], for which the IC50 with HT29, with SW620, with K562, in the assay with HCT116 and in the assay on HepG2 was > 10 µM in each case.
With `CCOc1ccc(C(=O)/C=C/c2ccc(N(CC)CC)cc2)c2c1C=CC(C)(C)O2` [SKLBC-41, (E)-3-(4-(diethylamino)phenyl)-1-(5-ethoxy-2,2-dimethyl-2H-chromen-8-yl)prop-2-en-1-one], the “inhibitory activity against tumor cells” value in the assay with tumor cells was “better inhibitory activity”.
On to `CCN(CC)c1ccc(/C=C/C(=O)c2ccc(OS(=O)(=O)c3ccc(C)cc3)c3c2OC(C)(C)C=C3)cc1` [SKLBC-46, (E)-8-(3-(4-(diethylamino)phenyl)acryloyl)-2,2-dimethyl-2H-chromen-5-yl 4-methylbenzenesulfonate], for which the IC50 with SMMC-7221 was > 10 µM; with K562 it was 4.42 µM; in the assay with A375 it was 8.4 µM; in the assay on A549, 9.7 µM; in the assay on LO2 it was 8.2 µM; in the assay on HepG2, 9.7 µM. In addition, the “inhibitory activity against tumor cells” value with tumor cells is given as “better inhibitory activity”.
